{"source": "patent US20060008864A1", "about": "“Methods to measure compound specificity” (priority 2004, published 2006)", "key": {"[1]": {"test_system": "HeLa CCT (cancer cell tubulin)", "experiment": "Fluorescence (DAPI) tubulin polymerization microassay, HeLa cancer cell tubulin", "type": "biochemical", "settings": "for Tubulin Ligand Index (TLI) ratio, HeLa: BBT EC50 divided by HeLa CCT EC50; for EC50: 2 mg/ml tubulin, enhancer format without glycerol, 50% of 20% glycerol control Vmax, read-out: EC50 using HeLa CCT", "text": "(§1) A plot of log10 of concentration (X-axis) and Percent Vmax (control) (Y-axis) is made for each compound."}, "[2]": {"test_system": "MCF-7 CCT (cancer cell tubulin)", "experiment": "Fluorescence (DAPI) tubulin polymerization microassay, MCF-7 cancer cell tubulin", "settings": "BBT EC50 divided by MCF-7 CCT EC50", "protocol": "Compounds were assayed in the standard glycerol containing (vinblastine and colchicine) or no glycerol containing (paclitaxel) formats. […] Twenty four micrograms of CCT in G-PEM with 10 uM DAPI plus glycerol (colchicine and vinblastine) or minus glycerol (paclitaxel) at 4° C. was pipetted into wells of the 384-well plate which contained 1.3 ul of 10× strength compound concentration and incubated at 37° C. Tubulin polymerization was detected by measuring the fluorescence of the solution (Ex 360 nm, Em 405 nm) over time. Each set of data, A through I, represents six duplicate polymerization assays from one experiment, the duplicates contain either a 20% glycerol control or one of five compound concentrations (0.1, 0.3, 1.0, 3.0 or 10 uM). Paclitaxel experiments were repeated n=3 for neuronal, n=5 for HeLa and n=2 for MCF-7. Vinblastine experiments were repeated n=2 for neuronal, n=5 for HeLa and n=2 for MCF-7. Colchicine experiments were repeated n=2 for neuronal, HeLa and MCF-7. […]\nUsing the conditions described in FIG. 9, we measured eleven taxol analogs against BBT and MCF-7 CCT. TLI's were calculated by the method described in FIG. 11. […]\nA fluorescent plate reader is tuned to 360 nm excitation wavelength and 405 to 475 nm emission wavelength, a 384 well plate was placed into the machine and it was pre-warmed to 37° C."}, "[3]": {"biological_target": "Bovine brain tubulin (mainly isotypes βII and βIII)", "settings": "cited from earlier work"}, "[4]": {"test_system": "HeLa CCT (cancer cell tubulin)", "settings": "BBT IC50 divided by HeLa CCT IC50; IC50 estimated from 50% intercept of dose response curve; cited from earlier work"}, "[5]": {"test_system": "Bovine brain tubulin (BBT, neuronal tubulin)", "experiment": "Fluorescence (DAPI) tubulin polymerization microassay, bovine brain tubulin", "type": "biochemical", "settings": "2 mg/ml tubulin, enhancer format without glycerol; 50% of 20% glycerol control Vmax; read-out: EC50 using neuronal tubulin", "text": "as §1"}}, "note": "Counter-ions that a name gives are not always drawn. Like-named read-outs stand apart in the source and are kept apart here.", "data": [{"compound": "CC(=O)O[C@@]12CO[C@@H]1C[C@H](O)[C@@]1(C)C(=O)[C@H](O)C3=C(C)[C@@H](O)C[C@@](O)([C@@H](OC(=O)c4ccccc4)[C@H]21)C3(C)C", "note": "[10-Deacetyl-baccatin-III]", "values": [{"measurement": "Tubulin Ligand Index (TLI) ratio, HeLa", "setting": "[1]", "result": "< 0.01"}, {"measurement": "Tubulin Ligand Index (TLI) ratio, MCF-7", "setting": "[2]", "result": 0.28}]}, {"compound": "N=C(N)c1ccc(-c2cc3ccc(C(=N)N)cc3[nH]2)cc1", "note": "[DAPI, 4′, 6-diamidino-2-phenylindole-HCl]", "values": [{"measurement": "Kd", "setting": "[3]; bovine brain tubulin in the monomer form, read-out: Kd (affinity constant) for DAPI, monomer form", "result": 43000, "unit": "nM"}, {"measurement": "Kd", "setting": "[3]; bovine brain tubulin in the polymer form, read-out: Kd (affinity constant) for DAPI, polymer form", "result": 6000, "unit": "nM"}]}, {"compound": "CC[C@]1(O)C[C@@H]2CN(CCc3c([nH]c4ccccc34)[C@@](C(=O)OC)(c3cc4c(cc3OC)N(C)[C@H]3[C@@](O)(C(=O)OC)[C@H](OC(C)=O)[C@]5(CC)C=CCN6CC[C@]43[C@@H]65)C2)C1", "note": "[vinblastine]", "values": [{"measurement": "Tubulin Ligand Index (TLI), BBT vs HeLa CCT, measured by Zentaris GmbH", "setting": "[4]", "result": 1.0}]}, {"compound": "CC(=O)O[C@H]1C(=O)[C@@]2(C)[C@H]([C@H](OC(=O)c3ccccc3)[C@]3(O)C[C@H](OC(=O)[C@H](O)[C@@H](NC(=O)c4ccccc4)c4ccccc4)C(C)=C1C3(C)C)[C@]1(OC(C)=O)CO[C@@H]1C[C@@H]2O", "note": "[paclitaxel]", "values": [{"measurement": "EC50", "setting": "[1]", "result": 790, "unit": "nM"}, {"measurement": "EC50", "setting": "[5]", "result": 150, "unit": "nM"}]}, {"compound": "Disorazol E1", "values": [{"measurement": "Tubulin Ligand Index (TLI), BBT vs HeLa CCT, measured by Zentaris GmbH", "setting": "[4]", "result": 2.0}]}, {"compound": "CC(=O)O[C@@]12CO[C@@H]1C[C@H](O)[C@@]1(C)C(=O)[C@H](O)C3=C(C)[C@@H](OC(=O)[C@H](O)[C@@H](NC(=O)OC(C)(C)C)c4ccccc4)C[C@@](O)([C@@H](OC(=O)c4ccccc4)[C@H]21)C3(C)C", "note": "[docetaxel]", "values": [{"measurement": "EC50", "setting": "[1]", "result": 150, "unit": "nM"}, {"measurement": "Tubulin Ligand Index (TLI) ratio, HeLa", "setting": "[1]", "result": 0.93}, {"measurement": "EC50", "setting": "[5]", "result": 140, "unit": "nM"}]}]}
